The values that follow are results of earlier work, collected in patent publication US20220310211A1, “NON-TRANSITORY COMPUTER-READABLE STORAGE MEDIUM, INFORMATION PROCESSING APPARATUS, AND INFORMATION PROCESSING METHOD” (FUJITSU LIMITED, priority 2021, published 2022).

For this data set the following is noted: PubChem AID 1006; binary Active/Inactive.

For the compound `Cc1cccc(Cc2cnc(O[Si](C)(C)C)[nH]2)c1C` [CID603597], the biological activity result is “Active”.
